Earlier results on 1 compound are cited in patent publication US10196359B2, “2-alkyloxy benzene formyl arylamine compound and pharmaceutical use thereof” (FUDAN UNIVERSITY, priority 2014, dated 2019).

As usually defined, the IC50 is the point on the concentration scale where inhibition reaches its midpoint.

For the data set, the system named is SMS. The settings on record: reference value; read-out: IC50 (SMS inhibitory activity); cited from earlier work.

As to `S=C(S)OC1CC2CC1C1CCCC21` (stereo not shown) [Scheme D609], the concentration for half-maximal inhibition (IC50) is 375 µM.
